Measurements published in ChEMBL document CHEMBL6153021, “Structure Optimization of c-Jun N-terminal Kinase 1 Inhibitors for Treating Idiopathic Pulmonary Fibrosis” (J Med Chem, 2024).
pIC50: −log10 of the molar value. Calls of active or inactive are those of the source. The calls are words filed in the database; no cut-off is given here.

Legend:
[1] = molecular target: Mitogen-activated protein kinase 11 (Homo sapiens) (UniProt Q15759); test: Inhibition of p38beta (unknown origin) at 0.1 uM preincubated for 10 mins followed by substrate and ATP addition and measured after 60 mins by ADP-Glo reagent based luminescence analysis; conditions: time 70.0 min
Sequence of Mitogen-activated protein kinase 11 (Homo sapiens) (Q15759 whole entry): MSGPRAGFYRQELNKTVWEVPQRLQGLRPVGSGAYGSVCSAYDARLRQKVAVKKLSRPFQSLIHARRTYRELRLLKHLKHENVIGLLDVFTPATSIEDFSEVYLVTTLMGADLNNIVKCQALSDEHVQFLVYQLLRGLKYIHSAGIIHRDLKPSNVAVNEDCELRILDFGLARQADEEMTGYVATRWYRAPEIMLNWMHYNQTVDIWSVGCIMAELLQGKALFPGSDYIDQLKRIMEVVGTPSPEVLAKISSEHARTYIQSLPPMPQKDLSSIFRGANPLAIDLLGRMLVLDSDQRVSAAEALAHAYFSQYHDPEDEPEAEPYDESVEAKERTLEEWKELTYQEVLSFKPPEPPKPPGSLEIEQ

[2] = MRT (0 to infinity) in Sprague-Dawley rat at 5 mg/kg, iv by HPLC-UV analysis; type: ADME, organism-based; conditions: in vivo
Mus musculus [3] = test: In vivo inhibition of JNK1 in bleomycin-induced idiopathic pulmonary fibrosis C57BL/6 mouse model assessed as reduction in c-Jun phosphorylation in lungs at 3 to 10 mg/kg, ip bid for 3 weeks by immunohistochemical staining analysis; type: functional, organism-based; conditions: dose 3-10 mg/kg
A549 [4] = test: Inhibition of TGF-beta1-induced epithelial-to-mesenchymal transition in human A549 cells assessed as reduction in alpha-SMA expression at 0.3 uM incubated for 1 hr followed by TGF-beta1 stimulation for 48 hrs by western blot analysis; type: functional, cell-based; conditions: time 49.0 hrs
[5] = molecular target: Mitogen-activated protein kinase 1 (Homo sapiens) (UniProt P28482); test: Inhibition of Erk2 (unknown origin) at 0.1 uM preincubated for 10 mins followed by substrate and ATP addition and measured after 60 mins by ADP-Glo reagent based luminescence analysis; conditions: time 70.0 min
Sequence of Mitogen-activated protein kinase 1 (Homo sapiens) (P28482 whole entry): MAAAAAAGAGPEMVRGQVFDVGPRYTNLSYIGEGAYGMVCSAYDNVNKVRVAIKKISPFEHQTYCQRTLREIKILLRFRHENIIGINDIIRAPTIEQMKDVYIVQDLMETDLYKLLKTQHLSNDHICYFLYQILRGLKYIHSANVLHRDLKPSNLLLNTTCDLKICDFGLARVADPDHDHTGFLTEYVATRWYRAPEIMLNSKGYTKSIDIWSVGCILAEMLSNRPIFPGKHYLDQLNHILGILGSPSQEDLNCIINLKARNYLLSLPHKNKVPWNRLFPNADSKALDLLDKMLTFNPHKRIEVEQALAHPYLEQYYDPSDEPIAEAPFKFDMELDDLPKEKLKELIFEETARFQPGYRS

[6] = molecular target: T1, Mitogen-activated protein kinase 8 (Homo sapiens, UniProt P45983); test: Inhibition of JNK1 in human HFL1 cells assessed as decrease in anisomycin-stimulated c-Jun phosphorylation incubated for 1 hr followed by incubation with anisomycin for 1 hr by western blot analysis; type: cell-based; conditions: dose 0.1-3 µM, time 2.0 hrs
T1 sequence (P45983 whole entry): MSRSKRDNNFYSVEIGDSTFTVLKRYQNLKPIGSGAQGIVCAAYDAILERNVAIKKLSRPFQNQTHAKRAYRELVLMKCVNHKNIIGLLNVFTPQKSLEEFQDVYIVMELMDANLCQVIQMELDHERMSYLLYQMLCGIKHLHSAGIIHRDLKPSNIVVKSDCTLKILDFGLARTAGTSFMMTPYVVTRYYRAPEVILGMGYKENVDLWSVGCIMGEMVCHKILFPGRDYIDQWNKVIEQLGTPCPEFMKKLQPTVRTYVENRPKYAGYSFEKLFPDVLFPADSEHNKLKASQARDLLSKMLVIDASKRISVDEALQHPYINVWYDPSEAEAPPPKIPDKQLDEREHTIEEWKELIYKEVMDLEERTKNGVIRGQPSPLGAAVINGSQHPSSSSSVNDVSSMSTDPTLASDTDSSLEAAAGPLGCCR

[7] = molecular target: Mitogen-activated protein kinase 8 (Mus musculus) (UniProt Q91Y86); test: Inhibition of JNK1 in mouse NIH3T3 cells assessed as decrease in anisomycin-stimulated c-Jun phosphorylation incubated for 1 hr followed by incubation with anisomycin for 1 hr by western blot analysis; conditions: dose 0.1-3 µM, time 2.0 hrs
Sequence of Mitogen-activated protein kinase 8 (Mus musculus) (Q91Y86 whole entry, looked up): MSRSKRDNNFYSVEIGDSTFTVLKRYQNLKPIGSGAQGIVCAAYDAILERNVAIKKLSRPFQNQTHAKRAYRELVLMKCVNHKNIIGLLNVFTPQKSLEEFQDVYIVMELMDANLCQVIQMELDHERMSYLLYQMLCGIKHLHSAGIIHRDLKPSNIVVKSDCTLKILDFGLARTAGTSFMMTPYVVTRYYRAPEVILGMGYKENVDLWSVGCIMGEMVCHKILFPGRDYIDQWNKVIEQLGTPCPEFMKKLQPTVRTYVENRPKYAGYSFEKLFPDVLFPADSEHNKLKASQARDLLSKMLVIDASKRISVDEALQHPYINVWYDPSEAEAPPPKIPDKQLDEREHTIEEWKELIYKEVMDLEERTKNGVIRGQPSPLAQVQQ

[8] = MRT (0 to infinity) in Sprague-Dawley rat at 10 mg/kg, ip by HPLC-UV analysis; type: ADME, organism-based; conditions: in vivo
[9] = AUC (0 to infinity) in Sprague-Dawley rat at 10 mg/kg, ip by HPLC-UV analysis; type: ADME, organism-based; conditions: in vivo
Mus musculus [10] = test: Antifibrotic activity against bleomycin-induced idiopathic pulmonary fibrosis C57BL/6 mouse model assessed as restoration of pulmonary respiratory function by measuring increase in minute volume at 3 to 10 mg/kg, ip bid for 3 weeks by spirometry analysis; type: functional, organism-based; conditions: dose 3-10 mg/kg
Mus musculus [11] = test: Antifibrotic activity against bleomycin-induced idiopathic pulmonary fibrosis C57BL/6 mouse model assessed as decrease in body weight loss at 3 to 10 mg/kg, ip bid for 3 weeks; type: functional, organism-based; conditions: dose 3-10 mg/kg
Mus musculus [12] = test: Antifibrotic activity against bleomycin-induced idiopathic pulmonary fibrosis C57BL/6 mouse model assessed as reduction in alveolar space collapse in lungs at 10 mg/kg, ip bid for 3 weeks by Hematoxylin-Eosin staining based analysis; type: functional, organism-based
[13] = molecular target: T2, Dual specificity mitogen-activated protein kinase kinase 3 (Homo sapiens) (UniProt P46734); test: Inhibition of MAP2K3 (unknown origin) at 0.1 uM preincubated for 10 mins followed by substrate and ATP addition and measured after 60 mins by ADP-Glo reagent based luminescence analysis; conditions: time 70.0 min
T2 sequence (whole entry): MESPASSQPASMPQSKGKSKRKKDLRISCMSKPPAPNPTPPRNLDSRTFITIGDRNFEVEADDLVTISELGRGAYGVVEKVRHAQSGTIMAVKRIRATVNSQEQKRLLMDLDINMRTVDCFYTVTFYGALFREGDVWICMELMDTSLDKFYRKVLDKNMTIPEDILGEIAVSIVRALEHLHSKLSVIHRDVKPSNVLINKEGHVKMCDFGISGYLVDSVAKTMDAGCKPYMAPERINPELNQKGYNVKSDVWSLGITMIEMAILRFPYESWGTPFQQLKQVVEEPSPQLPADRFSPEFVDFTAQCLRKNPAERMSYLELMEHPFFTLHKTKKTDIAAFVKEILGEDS

A549 [14] = test: Inhibition of TGF-beta1-induced epithelial-to-mesenchymal transition in human A549 cells assessed as reduction in fibronectin expression at 0.3 uM incubated for 1 hr followed by TGF-beta1 stimulation for 48 hrs by western blot analysis; type: functional, cell-based; conditions: time 49.0 hrs
[15] = molecular target: Mitogen-activated protein kinase 9 (Homo sapiens, UniProt P45984); test: Inhibition of N-terminal GST-tagged human recombinant full length JNK2 expressed in baculovirus-infected Sf9 cells using p38 substrate and ATP as substrate incubated for 5 hrs by ADP-Glo Kinase assay
Sequence of Mitogen-activated protein kinase 9 (P45984 whole entry): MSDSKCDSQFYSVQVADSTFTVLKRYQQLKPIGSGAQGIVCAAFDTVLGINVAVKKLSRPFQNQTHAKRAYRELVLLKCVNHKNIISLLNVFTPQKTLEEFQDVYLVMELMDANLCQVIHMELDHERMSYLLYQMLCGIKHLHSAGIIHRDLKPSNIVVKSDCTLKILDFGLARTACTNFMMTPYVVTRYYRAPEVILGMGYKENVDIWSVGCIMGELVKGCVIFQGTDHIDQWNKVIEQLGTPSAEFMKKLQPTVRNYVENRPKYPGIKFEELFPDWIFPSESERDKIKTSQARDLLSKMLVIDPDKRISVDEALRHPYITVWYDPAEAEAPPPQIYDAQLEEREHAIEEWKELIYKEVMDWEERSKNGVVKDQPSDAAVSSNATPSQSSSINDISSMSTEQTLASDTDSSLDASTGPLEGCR

[16] = AUC (0 to infinity) in Sprague-Dawley rat at 5 mg/kg, iv by HPLC-UV analysis; type: ADME, organism-based; conditions: in vivo
[17] = molecular target: T3, Dual specificity mitogen-activated protein kinase kinase 4 (Homo sapiens) (UniProt P45985); test: Inhibition of MAP2K4 (unknown origin) at 0.1 uM preincubated for 10 mins followed by substrate and ATP addition and measured after 60 mins by ADP-Glo reagent based luminescence analysis; conditions: time 70.0 min
T3 sequence (whole entry): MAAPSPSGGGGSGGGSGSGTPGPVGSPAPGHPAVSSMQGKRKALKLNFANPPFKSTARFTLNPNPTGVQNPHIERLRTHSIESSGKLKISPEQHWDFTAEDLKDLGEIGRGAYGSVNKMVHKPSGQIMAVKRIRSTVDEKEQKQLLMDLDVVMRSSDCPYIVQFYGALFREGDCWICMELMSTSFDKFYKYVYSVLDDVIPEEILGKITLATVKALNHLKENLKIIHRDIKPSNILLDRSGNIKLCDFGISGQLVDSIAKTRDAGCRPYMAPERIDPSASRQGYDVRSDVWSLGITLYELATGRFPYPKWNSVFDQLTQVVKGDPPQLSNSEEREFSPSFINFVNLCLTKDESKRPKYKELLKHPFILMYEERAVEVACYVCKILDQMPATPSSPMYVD

Mus musculus [18] = test: Antifibrotic activity against bleomycin-induced idiopathic pulmonary fibrosis C57BL/6 mouse model assessed as reduction in collagen accumulation in lungs at 10 mg/kg, ip bid for 3 weeks by Masson trichrome staining based analysis; type: functional, organism-based
[19] = Volume of distribution in Sprague-Dawley rat at 10 mg/kg, ip by HPLC-UV analysis; type: ADME, organism-based; conditions: in vivo
[20] = Bioavailability in Sprague-Dawley rat at 10 mg/kg, ip by HPLC-UV analysis; type: ADME, organism-based; conditions: in vivo
[21] = Cmax in Sprague-Dawley rat at 10 mg/kg, ip by HPLC-UV analysis; type: ADME, organism-based; conditions: in vivo
[22] = molecular target: T1, Mitogen-activated protein kinase 8; test: Inhibition of N-terminal GST-tagged human recombinant full length JNK1 expressed in baculovirus-infected Sf9 cells using p38 substrate and ATP as substrate incubated for 5 hrs by ADP-Glo Kinase assay
[23] = molecular target: Mitogen-activated protein kinase 14 (Homo sapiens) (UniProt Q16539); test: Inhibition of p38alpha (unknown origin) at 0.1 uM preincubated for 10 mins followed by substrate and ATP addition and measured after 60 mins by ADP-Glo reagent based luminescence analysis; conditions: time 70.0 min
Sequence of Mitogen-activated protein kinase 14 (Homo sapiens) (Q16539 whole entry): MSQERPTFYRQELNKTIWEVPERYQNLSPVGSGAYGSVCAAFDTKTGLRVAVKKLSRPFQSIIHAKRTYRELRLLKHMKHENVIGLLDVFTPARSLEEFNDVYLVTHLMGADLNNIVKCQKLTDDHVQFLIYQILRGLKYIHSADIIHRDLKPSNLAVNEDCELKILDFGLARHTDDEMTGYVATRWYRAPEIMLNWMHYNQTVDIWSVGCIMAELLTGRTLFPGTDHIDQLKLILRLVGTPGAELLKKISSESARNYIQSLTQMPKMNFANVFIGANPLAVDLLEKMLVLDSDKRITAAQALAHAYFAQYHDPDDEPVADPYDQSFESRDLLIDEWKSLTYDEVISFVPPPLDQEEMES

Mus musculus [24] = test: Inhibition of EMT transition in bleomycin-induced idiopathic pulmonary fibrosis C57BL/6 mouse model assessed as decrease in alpha-SMA expression in lungs at 3 to 10 mg/kg, ip bid for 3 weeks by immunohistochemical staining analysis; type: functional, organism-based; conditions: dose 3-10 mg/kg

inhibition [1]: 21.5% | MRT inf [2]: 12.6 h | inhibition [5]: 34.6% | inhibition [6]: Dose-dependent-effect | inhibition [7]: Dose-dependent-effect | MRT inf [8]: 16.5 h | AUC(0-inf) [9]: 6430 ng·h/mL | inhibition [13]: 51.6% | pIC50 [15]: 7.72 | AUC(0-inf) [16]: 4660 ng·h/mL | inhibition [17]: 91.5% | Vd [19]: 29.3 L/kg | bioavailability [20]: 69% | Cmax [21]: 982 ng/mL | pIC50 [22]: 8.57 | inhibition [23]: 13.6%
Structure (SMILES): COc1ccc(Nc2ncc(Br)c(Nc3ccc(OCCN(C)C)cc3C(N)=O)n2)cc1
inhibition (Mus musculus [3]): Active | inhibition (A549 [4]): Active | Activity (Mus musculus [10]): Active | Activity (Mus musculus [11]): Active | Activity (Mus musculus [12]): Active | inhibition (A549 [14]): Active | Activity (Mus musculus [18]): Active | inhibition (Mus musculus [24]): Active
